# Experiments:
# [1] = tested on: tactile allodynia in a spinal nerve ligation neuropathic pain model; experiment: Lumbar 5/6 spinal nerve ligation neuropathic pain model, mechanical paw withdrawal threshold (von Frey); format: in vivo, rat; conditions: pretreatment with 5 mg/kg i.p.; rats
# Excerpt: Neuropathic pain was induced following the methods of Kim and Chung. Kim S H, Chung J M. An experimental model for peripheral neuropathy produced by segmental spinal nerve ligation in the rat. Pain 1992; 50:355-63. Rats were anesthetized and placed prone under a microsurgical apparatus. A midline incision was made on the back, and the right paraspinal muscles were separated from the spinous processes at the L4-S2 levels. The L6 transverse process was carefully removed, and the L4/5 spinal nerves were identified. The L5 nerve was tightly ligated with a 6-0 silk suture. The right L6 spinal nerve was then located just caudal and medial to the sacroiliac junction and tightly ligated with a silk suture.
# Two weeks later after spinal nerve ligation, Intrathecal catheters (PE-10 tubing) was inserted into the rats while they were anesthetized with isoflurane, as described by Yaksh and Rudy. Yaksh T L, Rudy T A. Chronic catheterization of the spinal subarachnoid space. Physiology & Behavior 1976; 17:1031-6. A midline incision was made on the back of the neck. The muscle was freed at the attachment to the skull exposing the cisternal membrane. The membrane was opened with a stab blade and an 8.5 cm polyethylene (PE-10) catheter was then inserted through the cisternal opening, and passed carefully and caudally into the intrathecal space at the L1-L3 spinal segments. The end of the catheter was tunneled through the subcutaneous space over the frontal bones, flushed with 10 μl saline, and then plugged with a short length of wire Animal testing was performed 5-7 days after intrathecal catheter placement.
# To assess mechanical allodynia, the mechanical paw withdrawal threshold was measured with a series of von Frey hairs (range 0.4-15 g). Rats were placed in elevated Perspex enclosures (28 cm×15 cm×18 cm) with wire mesh bases and given 15-20 min to acclimatize to the testing environment. Rats will be allowed to acclimatize for 30 min in a clear plastic cage with a wire mesh bottom. The calibrated von Frey filament fibers were applied to the hindpaw briefly for 6 seconds to determine the paw withdrawal threshold before and after drug injection (intraperitoneally or intrathecally). A series of von Frey filaments with exponentially incremental stiffness (0.4, 0.7, 1.2, 2.0, 3.6, 5.5, 8.5 and 15 g) were used to measure the 50% threshold for hindpaw withdrawal in awake, unrestrained rats. Chaplan S R, Bach F W, Pogrel J W, Chung J M, Yaksh T L. Quantitative assessment of tactile allodynia in the rat paw. Journal of Neuroscience Methods 1994; 53:55-63. Brisk paw withdrawal from the pressure of a filament gently bent against the plantar paw was defined as a positive response, and absence of withdrawal within 6 s as a negative response. Filaments were touched to the hindpaw in sequential ascending or descending order until the threshold of response is crossed (allowing about 10 s between each increment of the von Frey filaments). Each time the threshold is crossed, the direction of stimulus presentation was reversed and the procedure will be resumed. Four responses were collected after the first threshold detection, and the 50% withdrawal thresholds were interpolated. In cases where response thresholds fell outside the range of detection, 15.00 and 0.25 g were, respectively, assigned for continuous negative or positive responses to the limit of stimuli.
# All surgical procedures were performed under deep isoflurane anesthesia in 100% O2. The spinal nerve ligation (SNL) was performed as described previously. Kim, S. H., et al., An Experimental Model for Peripheral Neuropathy Produced by Segmental Spinal Nerve Ligation in the Rat, Pain, 1992, 50:355-63. Briefly, a midline incision above the lumbar spine exposed the left L6 transverse process. The process was then removed, the left L5 and L6 spinal nerves were isolated, and both nerves were tightly ligated with 6-0 silk. […]
# CB1 [2] = molecular target: T1, CB1 (Homo sapiens, UniProt P21554); experiment: CB1 functional assay, [35S]GTP-γ-S binding; format: biochemical; parameters: purchased ES-110-MG; host or cells: CHO membrane extracts; conditions: read-out: [35S]GTP-γ-S hCB1 Emax (%); Table 9 footnote a: Efficacy determined at 3 μM; relative to CP 55,940
# T1 sequence (P21554 whole entry): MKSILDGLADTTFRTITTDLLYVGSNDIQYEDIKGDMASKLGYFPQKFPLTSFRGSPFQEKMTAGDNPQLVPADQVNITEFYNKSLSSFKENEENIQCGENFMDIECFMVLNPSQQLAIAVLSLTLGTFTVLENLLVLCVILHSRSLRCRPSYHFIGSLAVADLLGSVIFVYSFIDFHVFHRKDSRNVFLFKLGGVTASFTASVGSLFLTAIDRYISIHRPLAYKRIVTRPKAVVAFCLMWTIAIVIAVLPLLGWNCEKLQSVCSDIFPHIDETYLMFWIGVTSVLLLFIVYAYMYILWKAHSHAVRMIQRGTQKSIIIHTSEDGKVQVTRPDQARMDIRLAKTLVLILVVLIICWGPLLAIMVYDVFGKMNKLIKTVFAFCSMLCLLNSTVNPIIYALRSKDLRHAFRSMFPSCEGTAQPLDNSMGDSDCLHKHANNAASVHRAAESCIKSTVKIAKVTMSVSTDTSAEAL
# Protocol: A dose response curve was generated at eight concentrations in duplicate on CB1 and CB2 in light of reference agonists.
# Membranes (CB1, ES-110-MG or CB2, ES-111-MG) are mixed with GDP (volume:volume) and incubated for at least […] on ice. In parallel, […] are mixed with the beads (volume:volume) just before starting the reaction. The following reagents are successively added in the wells of an Optiplate: 50 μl of ligand, 20 μl of the membranes:GDP mix, 10 μl of assay buffer for agonist testing and 20 μl of the […]: beads mix. The plates are covered with a topseal, shaken on an orbital shaker for 2 min, and then incubated between 30 to 60 min at room temperature. Then the plates are centrifuged for 10 min at 2000 rpm, incubated at room temperature between 1 to 4 hours and counted for 1 min with a PerkinElmer TopCount reader.
# Functional activity for acyl hydrazone was evaluated using [^35S]GTP-γ-S assay in CHO membrane extracts expressing recombinant hCB1 receptor or hCB2 receptor. The assay relies on the binding of [^35S]GTP-γ-S, a radiolabeled nonhydrolyzable GTP analogue, to the G protein upon binding of an agonist of the G-protein-coupled receptor. In this system, agonists stimulate [^35S]GTP-γ-S binding whereas neutral antagonist have no effect and inverse agonists decrease [^35S]GTP-γ-S basal binding.
# CB1 and CB2 assay data are presented as the mean of two determinations. […] For replicate determinations, the maximum variability tolerated in the test was of ±20% around the average of the replicates.
# hCB2 receptor = molecular target: T2, hCB2 receptor (Homo sapiens, UniProt P34972); experiment: CB2 functional assay, [35S]GTP-γ-S binding; format: biochemical
# T2 construct: purchased ES-111-MG; host or cells: CHO membrane extracts
# T2 sequence (P34972 whole entry): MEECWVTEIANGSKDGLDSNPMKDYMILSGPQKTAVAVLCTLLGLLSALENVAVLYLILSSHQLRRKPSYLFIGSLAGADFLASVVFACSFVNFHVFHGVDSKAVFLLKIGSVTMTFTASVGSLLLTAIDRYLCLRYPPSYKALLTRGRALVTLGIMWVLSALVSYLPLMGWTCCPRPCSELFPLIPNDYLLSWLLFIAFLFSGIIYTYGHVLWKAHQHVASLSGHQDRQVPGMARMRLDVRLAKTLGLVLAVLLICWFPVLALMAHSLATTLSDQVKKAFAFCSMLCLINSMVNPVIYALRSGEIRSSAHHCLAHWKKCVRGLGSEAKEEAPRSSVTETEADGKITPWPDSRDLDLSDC
# [3] = molecular target: T3, human CB2 (hCB2) receptor (Homo sapiens, UniProt P34972); experiment: CB2 binding assay, competitive binding of [3H]WIN 55212-2; conditions: read-out: % inhibition hCB2 receptor, at 1 μM; specific binding of [3H]-WIN55212-2; CHO membranes
# T3 construct: expressed in transfected cells; host or cells: CHO (Chinese hamster ovary) cells, membranes
# T3 sequence (P34972 whole entry): as above
# Procedure, shortened: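 CHO cell membranes expressing hCB2 (15 μg protein) incubated 120 min at 37° C with 0.8 nM [3H]WIN 55212-2 in 50 mM HEPES/Tris pH 7.4, 5 mM MgCl2, 2.5 mM EGTA, 0.1% BSA; nonspecific binding with 10 μM WIN 55212-2. Filtration and scintillation counting; compounds at 1 μM, reported as % inhibition of control specific binding.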
# [4] = molecular target: T4, human CB1 (hCB1) receptor (Homo sapiens, UniProt P21554); experiment: CB1 binding assay, competitive binding of [3H]CP 55940; conditions: at 1 μM; specific binding of [3H]-CP55940; CHO membranes
# T4 construct: expressed in transfected cells; host or cells: CHO (Chinese hamster ovary) cells, membranes
# T4 sequence (P21554 whole entry): as the sequence (P21554 whole entry) above
# Procedure, shortened: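 CHO cell membranes expressing human CB1 (25 μg protein) incubated 120 min at 37 °C with 0.5 nM [3H]CP 55940 in Tris-HCl pH 7.4 buffer with MgCl2, EDTA, 0.3% BSA. Filtration and scintillation counting; compound tested at 1 μM, given as percent inhibition of control specific binding.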
# CB1 [5] = molecular target: T1, CB1; experiment: CB1 antagonist functional assay; format: biochemical; conditions: data not shown
Compound,effect of pretreatment on the anti-allodynic effect of Example 6 [1],Emax at 3 µM (CB1 [2]),"EC50 (hCB2 receptor; Table 9, mean of two determinations, read-out: [35S]GTP-γ-S hCB2 EC50 (nM ± SEM))","Emax (hCB2 receptor; Table 9, relative to the efficacy of CP 55,940)",inhibition at 1 µM [3],inhibition at 1 µM [4],antagonist activity in a CB1 antagonist functional assay (CB1 [5]),"Emax at 3 µM (hCB2 receptor; read-out: [35S]GTP-γ-S hCB2 Emax (%), Table 9 footnote a: Efficacy determined at 3 μM, relative to CP 55,940)"
"COc1ccc(C(=O)c2c(C)n(CCN3CCOCC3)c3cc(I)ccc23)cc1 [AM630, reference compound]",antagonized the effects of compound of Example 6,–,–,–,–,–,–,–
"CCCCCCN1C(=O)/C(=N\NC(=O)c2cccc3ccccc23)c2ccccc21 [Example 19, N′-[(3Z)-1-hexyl-2-oxo-1,2-dihydro-3H-indol-3-ylidene]-1-naphthohydrazide]",–,12.9%,202.2 ± 2 nM,30.5%,69.8 ± 4%,> 80%,failed to be antagonist,–
"CCCCCCN1C(=O)/C(=N\NC(=O)C23CC4CC(CC(C4)C2)C3)c2ccccc21 [Example 20, N′-[(3Z)-1-hexyl-2-oxo-1,2-dihydro-3H-indol-3-ylidene]adamantane-1-carbohydrazide]",–,34.6%,–,–,> 85%,> 85%,failed to be antagonist,32.1%

# Reference: patent US9079854B2 (priority 2007, dated 2015)
